Measured values published in PMC6264278, “Corydaline Inhibits Multiple Cytochrome P450 and UDP-Glucuronosyltransferase Enzyme Activities in Human Liver Microsomes” (Molecules, 2011).

Key:
[1] = target: T1, UGT1A9 (Homo sapiens, UniProt O60656); test: UGT1A9 propofol glucuronidation inhibition in pooled human liver microsomes; format: in vitro ADME
T1 construct: using pooled human liver microsomes; tissue BD Gentest Co. H161; host or cells: pooled human liver microsomes
T1 sequence (O60656 26-530): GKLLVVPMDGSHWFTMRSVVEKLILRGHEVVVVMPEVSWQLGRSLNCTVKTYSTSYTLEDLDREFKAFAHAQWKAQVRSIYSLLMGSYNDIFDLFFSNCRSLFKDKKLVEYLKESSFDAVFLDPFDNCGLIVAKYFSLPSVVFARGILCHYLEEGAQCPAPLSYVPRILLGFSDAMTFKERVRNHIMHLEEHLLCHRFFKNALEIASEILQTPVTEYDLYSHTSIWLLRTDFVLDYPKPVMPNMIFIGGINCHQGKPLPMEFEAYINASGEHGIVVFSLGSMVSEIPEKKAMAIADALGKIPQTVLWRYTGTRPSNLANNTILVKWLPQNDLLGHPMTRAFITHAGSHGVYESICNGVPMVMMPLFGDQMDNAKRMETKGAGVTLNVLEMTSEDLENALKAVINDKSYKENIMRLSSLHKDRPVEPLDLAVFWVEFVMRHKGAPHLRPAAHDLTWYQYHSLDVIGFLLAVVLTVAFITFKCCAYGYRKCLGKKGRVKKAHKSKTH
Method: (§1) The inhibitory potencies (IC50 values) of corydaline were also determined with UGT assays in the presence and absence of corydaline (final concentrations of 1–1,000 μM with acetonitrile concentration less than 0.5% v/v) using pooled human liver microsomes. 17β-Estradiol 3-glucuronidation, trifluoperazine glucuronidation, propofol glucuronidation, and azidothymidine glucuronidation activities were determined as probe activities for UGT1A1, UGT1A4, UGT1A9, and UGT2B7, respectively, using LC/MS/MS. Incubation mixtures were prepared in a total volume of 100 μL, as follows: Pooled human liver microsomes (0.2 mg/mL for 17β-estradiol, trifluoperazine and azidothymidine; 0.1 mg/mL for propofol), 2 mM UDPGA, 25 μg/mL alamethicin, 10 mM MgCl2, 50 mM tris buffer (pH 7.4), UGT-isoform specific probe substrate (20 μM 17β-estradiol for UGT1A1, 5 μM trifluoperazine for UGT1A4, 10 μM propofol for UGT1A9, or 100 μM azidothymidine for UGT2B7), and various concentrations of corydaline (1−1000 μM). Reactions were initiated by addition of UDPGA, and incubations were carried out at 37 °C in a shaking water bath for 30 min. […]
(§2) Glucuronides produced from UGT isoform-specific substrates were respectively determined by LC/MS/MS. […] Quantification was performed by SRM of the [M+H]^+ ion for trifluoperazine glucuronide and azidothymidine glucuronide or [M−H]^− for 17β-estradiol 3-glucuronide and propofol glucuronide and the related product ion for each metabolite.
Reactions were initiated by addition of NADPH at 37 °C and stopped after 15 min by placement of the incubation tubes on ice and addition of ice-cold methanol (100 μL) containing an internal standard (2.0 μg/mL ^13C6-4-hydroxydiclofenac for diclofenac, 0.5 μg/mL d3-4-hydroxymephenytoin for mephenytoin, or 0.5 μg/mL d9-1-hydroxy-bufuralol for bufuralol). The incubation mixtures were centrifuged at 13,000 × g for 5 min, and aliquots (5 μL) of the supernatants were analyzed by LC/MS/MS. […] Aliquots (5 μL) were analyzed by LC/MS/MS. […]

[2] = target: T2, UGT2B7 (Homo sapiens, UniProt P16662); test: UGT2B7 azidothymidine glucuronidation inhibition in pooled human liver microsomes; format: in vitro ADME; conditions: pooled human liver microsomes (H161), 100 μM azidothymidine, no inhibition at 1,000 μM of corydaline
T2 construct: using pooled human liver microsomes; tissue BD Gentest Co. H161; host or cells: pooled human liver microsomes
T2 sequence (P16662 24-529): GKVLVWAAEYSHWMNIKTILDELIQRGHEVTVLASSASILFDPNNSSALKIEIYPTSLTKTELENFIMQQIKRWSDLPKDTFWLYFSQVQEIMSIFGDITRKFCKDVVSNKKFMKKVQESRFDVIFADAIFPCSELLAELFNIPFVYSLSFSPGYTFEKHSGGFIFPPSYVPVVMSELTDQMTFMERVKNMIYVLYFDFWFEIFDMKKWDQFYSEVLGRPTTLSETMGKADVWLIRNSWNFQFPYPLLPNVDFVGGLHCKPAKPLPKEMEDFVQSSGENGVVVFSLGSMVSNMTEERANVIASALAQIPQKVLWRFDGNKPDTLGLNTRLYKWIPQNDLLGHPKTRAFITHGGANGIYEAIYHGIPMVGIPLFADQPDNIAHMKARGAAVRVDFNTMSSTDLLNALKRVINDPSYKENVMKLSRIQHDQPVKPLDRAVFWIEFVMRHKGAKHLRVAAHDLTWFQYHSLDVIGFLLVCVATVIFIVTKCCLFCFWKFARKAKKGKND
Method: as §1, with “μM).” for “μM). Reactions were initiated by addition of UDPGA, and incubations were carried out at 37 °C in a shaking water bath for 30 min.”
as §2, with “metabolite. […]” for “metabolite.”

Ki ([1]; human liver microsomes, 10-30 μM propofol): 37.3 ± 14.4 µM
inhibition mode, UGT1A9 propofol glucuronidation ([1]; mixed competitive-noncompetitive equation, nonlinear regression): competitive
IC50 ([1]; pooled human liver microsomes (H161), 10 μM propofol, mean ± SD, n = 3): 39.4 ± 6 µM
IC50, UGT2B7 azidothymidine glucuronidation [2]: not inhibited
IC50, UGT2B7 azidothymidine glucuronidation ([2]; listed as corydaline): No inhibition *
Compound: COc1cc2c(cc1OC)C1C(C)c3ccc(OC)c(OC)c3CN1CC2 (centres unmarked) [Corydaline, 2,3,9,10-tetramethoxy-13-methyl-5,8,13,13a-tetrahydro-6H-isoquino[3,2-a]isoquinoline]
